Assay results reported in US8592475B2, “Inhibitors of Akt activity” (GlaxoSmithKline LLC, priority 2008, dated 2013).

Molecular target: T1, full length AKT1 (Homo sapiens, UniProt P31749)
T1 construct: His tag (from vector pFastBacHTb) (N); made in house; host or cells: baculovirus; Sf9 / T. ni insect cells
Experiment: AKT enzyme assay (substrate phosphorylation, SPA)
Assay type: biochemical
Details: in at least one experimental run; pIC50 = -log(IC50), IC50 in molar units; 10 nM activated AKT enzyme, 4 uM ATP; read-out: pIC50 against full length AKT1 (converted)
From the text: Cloning of Full-length Human (FL) AKT1:
Full-length human AKT1 gene was amplified by PCR from a plasmid containing myristylated-AKT1-ER (gift from Robert T. Abraham, Duke University under MTA, described in Klippel et al. in Molecular and Cellular Biology 1998 Volume 18 p. 5699) using the 5′ primer: SEQ.ID NO: 2, 5′ […] 3′ and the 3′ primer: SEQ.ID NO: 3, […] 3′. The 5′ primer included a BamHI site and the 3′ primer included an XhoI site for cloning purposes. The resultant PCR product was subcloned in pcDNA3 as a BamHI/XhoI fragment. A mutation in the sequence (TGC) coding for a Cysteine^25 was converted to the wild-type AKT1 sequence (CGC) coding for an Arginine^25 by site-directed mutagenesis using the QuikChange® Site Directed Mutagenesis Kit (Stratagene). […] For expression/purification purposes, AKT1 was isolated as a BamHI/XhoI fragment and cloned into the BamHI/XhoI sites of pFastbacHTb (Invitrogen).
Expression of FL Human AKT1:
Expression was done using the BAC-to-BAC Baculovirus Expression System from Invitrogen (catalog #10359-016). Briefly 1) the cDNA was transferred from the FastBac vector into bacmid DNA, 2) the bacmid DNA was isolated and used to transfect Sf9 insect cells, 3) the virus was produced in Sf9 cells, 4) T. ni cells were infected with this virus and sent for purification.
Purification of FL Human AKT1:
For the purification of full-length AKT1, 130 g sf9 cells (batch #41646WO2) were resuspended in lysis buffer (buffer A, 1 L, pH 7.5) containing 25 mM HEPES, 100 mM NaCl, and 20 mM imidazole. The cell lysis was carried out by Avestin (2 passes at 15K-20K psi). Cell debris was removed by centrifuging at 16K rpm for 1 hour and the supernatant was batch bound to 10 ml Nickel Sepharose HP beads at 4 C for over night. The beads were then transferred to column and the bound material was eluted with buffer B (25 mM HEPES, 100 mM NaCl, 300 mM imidazole, pH 7.5). AKT eluting fractions were pooled and diluted 3 fold using buffer C (25 mM HEPES, 5 mM DTT; pH 7.5). The sample was filtered and chromatographed over a 10 mL Q-HP column pre-equilibrated with buffer C at 2 mL/min.
The Q-HP column was washed with 3 column volume (CV) of buffer C, then step eluted with 5 CV 10% D, 5 CV 20% D, 5 CV 30% D, 5 CV 50% D and 5 CV of 100% D; where buffer D is 25 mM HEPES, 1000 mM NaCl, 5 mM DTT; pH 7.5. 5 mL fractions collected. AKT containing fractions were pooled and concentrated to 5 ml. The protein was next loaded to a 120 ml Superdex 75 sizing column that was pre-equilibrated with 25 mM HEPES, 200 mM NaCl, 5 mM DTT; pH 7.5. 2.5 mL fractions were collected.
AKT 1 eluting fractions were pooled, aliquoted (1 ml) and stored at −80 C. Mass spec and SDS-PAGE analysis were used to confirm purity and identity of the purified full-length AKT1.
Compounds of the present invention are tested for AKT 1, 2, and 3 protein serine kinase inhibitory activity in substrate phosphorylation assays. This assay examines the ability of small molecule organic compounds to inhibit the serine phosphorylation of a peptide substrate. The substrate phosphorylation assays use the catalytic domains of AKT 1, 2, or 3. AKT 1, 2 and 3 are also commercially available from Upstate USA, Inc. The method measures the ability of the isolated enzyme to catalyze the transfer of the gamma-phosphate from ATP onto the serine residue of a biotinylated synthetic peptide SEQ. ID NO: 5 (Biotin-ahx-ARKRERAYSFGHHA-amide). Substrate phosphorylation is detected by the following procedure: […]

T1 sequence (P31749 whole entry): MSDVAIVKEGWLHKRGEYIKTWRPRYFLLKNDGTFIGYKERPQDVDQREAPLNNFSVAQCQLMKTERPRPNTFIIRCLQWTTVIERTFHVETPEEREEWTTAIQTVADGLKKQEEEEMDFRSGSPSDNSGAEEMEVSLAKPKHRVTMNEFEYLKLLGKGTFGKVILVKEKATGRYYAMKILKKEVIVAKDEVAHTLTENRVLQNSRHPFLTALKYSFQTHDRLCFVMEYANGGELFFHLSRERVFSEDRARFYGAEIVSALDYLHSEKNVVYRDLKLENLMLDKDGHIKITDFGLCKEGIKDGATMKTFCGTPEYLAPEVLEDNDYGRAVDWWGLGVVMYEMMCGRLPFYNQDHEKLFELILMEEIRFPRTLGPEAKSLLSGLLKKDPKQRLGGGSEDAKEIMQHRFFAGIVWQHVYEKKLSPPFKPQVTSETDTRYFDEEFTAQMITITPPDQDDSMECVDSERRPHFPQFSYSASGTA

Structure (SMILES)	IC50 [nM]
Cn1nccc1-c1c(Cl)sc(NC(=O)C(CN)c2ccccc2)c1Cl (centres unmarked) [Example 1, 3-amino-N-[3,5-dichloro-4-(1-methyl-1H-pyrazol-5-yl)-2-thienyl]-2-phenylpropanamide]	158
Cn1ncc(Cl)c1-c1cc(NC(=O)[C@@H](CN)Cc2ccccc2)sc1Cl [Example 5, (2R)-3-amino-N-[5-chloro-4-(4-chloro-1-methyl-1H-pyrazol-5-yl)-2-thienyl]-2-(phenylmethyl)propanamide]	10

Other lines, results leading:

IC50 [nM]	Structure (SMILES)
1.58	Cn1ncc(Cl)c1-c1cc(NC(=O)[C@H](CN)Cc2ccc(F)c(F)c2)sc1Cl [Example 7, (2S)-3-amino-N-[5-chloro-4-(4-chloro-1-methyl-1H-pyrazol-5-yl)-2-thienyl]-2-[(3,4-difluorophenyl)methyl]propanamide]
5.01	Cn1ncc(Cl)c1-c1cc(NC(=O)[C@@H](CN)Cc2ccccc2F)sc1Cl [Example 10, (2R)-3-amino-N-[5-chloro-4-(4-chloro-1-methyl-1H-pyrazol-5-yl)-2-thienyl]-2-[(2-fluorophenyl)methyl]propanamide]
2.51	Cn1ncc(Cl)c1-c1cc(NC(=O)[C@H](CN)Cc2cccc(F)c2)sc1Cl [Example 13, (2S)-3-amino-N-[5-chloro-4-(4-chloro-1-methyl-1H-pyrazol-5-yl)-2-thienyl]-2-[(3-fluorophenyl)methyl]propanamide]
